Where no end group is shown, it is not given here.
Legend:
[1] = tested on: B16B15b mouse melanoma; assay: In vivo panning against a melanoma tumor; conditions: 89 cloned phage recovered from B16B15b tumors, three rounds
Protocol: Mice bearing a melanoma were produced by implantation of B16B15b mouse melanoma cells, which produce highly vascularized tumors. B16B15b mouse melanoma cells were injected subcutaneously into the mammary fat pad of nude mice (2 months old) and tumors were allowed to grow until the diameter was about 1 cm. In vivo panning was performed as disclosed above. Approximately 1×10^12 transducing units of phage expressing the CX5C (SEQ ID NO:9), CX6C (SEQ ID NO:10) or CX7C (SEQ ID NO:11) library were injected, iv, and allowed to circulate for 4 min. Mice then were snap frozen in liquid nitrogen or perfused through the heart while under anesthesia, tumor tissue and brain (control organ) were removed, and phage were isolated as described above. Three rounds of in vivo panning were performed.
The amino acid sequences were determined for the inserts in 89 cloned phage recovered from the B16B15b tumors. The peptides expressed by these phage were represented by two predominant sequences, […] (SEQ ID NO:4; 52% of the clones sequenced) and WGTGLC (SEQ ID NO:18; 25% of the clones; see Table 2).

[2] = biological target: T1, CD13/APN (Homo sapiens, UniProt P15144); assay: Affinity chromatography of cell extracts on immobilized peptide; assay type: binding
T1 construct: Experiments were performed using HL-60 cell extracts because they are known to express CD13/APN; endogenous in cells; host or cells: HL-60 cells (extract)
T1 sequence (P15144 whole entry): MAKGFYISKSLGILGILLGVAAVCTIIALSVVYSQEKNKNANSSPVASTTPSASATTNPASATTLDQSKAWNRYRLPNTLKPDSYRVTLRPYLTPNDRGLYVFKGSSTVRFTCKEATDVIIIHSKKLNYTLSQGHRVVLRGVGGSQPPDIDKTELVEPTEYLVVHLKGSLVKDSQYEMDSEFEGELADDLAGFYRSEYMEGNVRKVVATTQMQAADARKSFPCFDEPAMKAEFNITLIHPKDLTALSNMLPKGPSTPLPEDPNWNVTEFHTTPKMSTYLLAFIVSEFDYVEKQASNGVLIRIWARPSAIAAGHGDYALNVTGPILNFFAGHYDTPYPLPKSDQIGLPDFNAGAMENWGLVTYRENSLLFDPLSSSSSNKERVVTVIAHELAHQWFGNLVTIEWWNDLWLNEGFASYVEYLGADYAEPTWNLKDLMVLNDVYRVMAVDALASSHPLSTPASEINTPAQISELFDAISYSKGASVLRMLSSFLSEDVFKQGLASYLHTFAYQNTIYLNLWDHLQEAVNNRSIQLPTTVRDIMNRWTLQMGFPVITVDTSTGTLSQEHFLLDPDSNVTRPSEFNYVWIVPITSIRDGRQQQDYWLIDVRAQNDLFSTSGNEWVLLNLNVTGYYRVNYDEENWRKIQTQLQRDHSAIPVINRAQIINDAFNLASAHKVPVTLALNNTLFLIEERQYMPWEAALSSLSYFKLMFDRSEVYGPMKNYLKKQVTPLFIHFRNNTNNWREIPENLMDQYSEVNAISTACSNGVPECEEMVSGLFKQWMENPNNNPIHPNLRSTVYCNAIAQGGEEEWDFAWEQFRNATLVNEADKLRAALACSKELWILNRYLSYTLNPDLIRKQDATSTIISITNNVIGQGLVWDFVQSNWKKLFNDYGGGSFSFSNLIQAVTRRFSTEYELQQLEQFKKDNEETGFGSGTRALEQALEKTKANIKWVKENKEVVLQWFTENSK
Protocol: To further characterize the interaction of CD13/APN with the NGR peptide, affinity chromatography on the CNGRC peptide was performed. The column was prepared by coupling the CNGRC peptide to SEPHAROSE (Pharmacia; Piscataway N.J.). Elution was effected with soluble CNGRC peptide. […] Extracts of Molt-4 and MDA-MB-435 cells transfected with CD13/APN were also characterized by using affinity chromatography, with extracts of the mock transfected counterparts used as negative controls.
The fractions were also analyzed for CD13 enzymatic activity using AlapNA as the substrate.

[3] = biological target: CD13/aminopeptidase N (Homo sapiens, UniProt P15144); conditions: cited from earlier work
CD13/aminopeptidase N, sequence (P15144 whole entry): as above

[4] = biological target: T1, CD13/APN; assay: Aminopeptidase enzymatic activity of immuno-isolated CD13 (Ala-pNA or Leu-pNA); assay type: biochemical; conditions: Kaposi's sarcoma tumor cell extracts
Protocol: Given that the NGR sequence closely resembles a reverse RGD sequence, NGR-containing phage were tested to determine whether they would bind to CD13/aminopeptidase (CD13/APN). Kaposi's sarcoma tumor cell octylglucoside extracts were used as a source of CD13/APN. Aminopeptidase enzymatic activity was measured in these extracts utilizing Ala-pNA or Leu-pNA as substrates by monitoring the absorbance of the samples at 405 nm (Look et al., supra (1989); Taylor, supra (1993); Amoscato et al., supra (1989), each of which is incorporated herein by reference).
The CD13 antibody alone had no aminopeptidase activity.

[5] = tested on: human αv-integrins; conditions: cited from earlier work
[6] = tested on: MDA-MB-435 derived tumors; assay: In vivo targeting of phage to breast carcinoma xenografts (phage recovery); set-up: species or system mouse; inhibition of CGSLVRC phage tumor homing by soluble peptide: dose or concentration left out as unconfirmed; conditions: for inhibition of tumor homing of CNGRCVSGCAGRC (NGR) phage by co-injected soluble peptide: breast carcinoma xenografts; for inhibition of tumor homing of RGD-4C phage by co-injected soluble peptide: increasing amounts of peptide; for reduction of the amount of phage in the tumor by coinjection of free peptide: 500 μg free peptide coinjected with RGD-4C phage
Protocol: When the tumors attained a diameter of about 1 cm, phage expressing a specific RGD-containing peptide were administered to the tumor bearing mouse. Similar results to those discussed below also were obtained with nude mice bearing tumors formed by implantation of human melanoma C8161 cells or by implantation of mouse B16 melanoma cells.
1×10^9 phage expressing the RGD-containing peptide, RGD-4C ([…]; SEQ ID NO:1; see, Koivunen et al., supra, 1995) or control (insertless) phage were injected intravenously (iv) into the mice and allowed to circulate for 4 min. The mice then were snap frozen or perfused through the heart while under anesthesia, and various organs, including tumor, brain and kidney, were removed and the phage present in the organs was quantitated (see U.S. Pat. No. 5,622,699; Pasqualini and Ruoslahti, supra, 1996).
Phage displaying tumor homing peptides were recovered from breast carcinoma xenografts. […] The mean number of phage recovered from the tumor or control tissue (brain) and the standard error of the mean (SEM) from triplicate platings are shown in FIG. 1.
An insertless phage with a different selective marker (ampicillin instead of tetracycline) was co-injected with the NGR phage at the same input to assess specificity within the same tumor-bearing animal. The ratios were calculated using the number of co-injected control ampicillin-resistant phage recovered from the same tissues. The phage were quantitated from triplicate platings on tetracycline (the homing phage) or ampicillin (control phage) selective plates. Various additional control phage were injected separately into tumor-bearing mice. These controls included: fd-tet phage without insert; unselected phage library mixtures; phage selected and shown to home to other normal vascular beds; and phage displaying peptides that were unrelated to NGR. The RGD-4C ([…]; SEQ ID NO:1) phage served as a positive control.

[7] = tested on: MDA-MB-435 breast carcinoma; assay: Tumor therapy of mice bearing MDA-MB-435 breast carcinoma; assay type: in vivo, mouse
Protocol: Female 2-month old Balb c nu/nu mice (Harlan Sprague Dawley; San Diego Calif.) were used for these studies and were cared for according to the Burnham Institute animal facility guidelines. […] Tumors were allowed to grow to a size of about 1 cm^3 (about 5% of the mouse's body weight) before starting the treatment experiments, except for the toxicity experiments as discussed below.
Weekly doxorubicin/peptide conjugate or control treatments (5 μg/mouse/week of doxorubicin-equivalent) were administered intravenously. In some experiments, as indicated, a dose of 30 μg/mouse was administered every 3 weeks. […] As an additional control, in some experiments the tumor homing peptide was mixed with doxorubicin, without linking, and the mixture was administered to tumor bearing mice.
Mice were anesthetized with a tribromoethanol-based anesthetic mixture (AVERTIN; Papaioannou and Fox, Lab. Anim. 43:189-192 (1993)) before each treatment. Anesthetization facilitated the tail vein injections (final volume, 200 μl) and allowed precise serial three dimensional tumor size measurements. Tumor volume calculations were based on the equation for the volume of an ovaloid: V=4/3(nabc), where a, b, and c are ½ of the measured diameters in each of the three dimensions.
Briefly, mice with size-matched tumors (˜1000 mm^3) were randomized into four treatment groups (six animals per group): vehicle only, free doxorubicin, doxorubicin-control peptide, and doxorubicin-CNGRC (SEQ ID NO:8). Mice were treated at 5 μg/mouse/week of doxorubicin-equivalent, and the difference in tumor volumes between day 1 and day 28 determined (FIG. 11A).

[8] = tested on: MDA-MB-435 human breast carcinoma cells; conditions: for cell killing when agents not removed: after 24 hr
Protocol: (SEQ ID NO:19; control) conjugate (0.1 to 10 μg/well of doxorubicin-equivalent) for either 30 min or overnight. Following incubation, the agents were removed by extensive washing with PBS, then fresh medium added and incubation was continued.

[9] = tested on: MDA-MB-435 breast carcinoma; assay: Tumor therapy of mice bearing MDA-MB-435 breast carcinoma; assay type: in vivo; conditions: 5 μg/mouse/week doxorubicin-equivalent
[10] = Acute toxicity in mice bearing extremely large tumors; conditions: 200 μg/mouse, tumors about 25% of body weight
[11] = tested on: breast tumor; assay: Viability of tumor cells obtained from tumors of treated mice; assay type: in vivo, mouse; conditions: 30 μg equivalent iv, tumors removed five days after treatment
Protocol: In addition, the viability of tumor cells obtained from tumors of mice treated with a tumor homing peptide/doxorubicin conjugate was compared to that of tumors from mice treated with free doxorubicin. In these experiments, breast tumor bearing mice were size matched with regard to the tumors, then treated intravenously with 30 μg equivalent of doxorubicin/RGD-4C ([…]; SEQ ID NO:1) or of free doxorubicin. Five days after treatment, the mice were euthanized and the tumors were removed. The tumor pairs were weighed and ground and the cell suspensions were plated (2 g tumor tissue per 150 mm plate).
Cell numbers were determined at 24 hours and 7 days after plating. Viability of tumor cells from the tumors of mice receiving the doxorubicin/RGD-4C ([…]; SEQ ID NO:1) conjugate was about 3 fold less than cells from tumors of mice treated with the free doxorubicin.

[12] = biological target: T2, CD13 (Gallus gallus, UniProt O57579); assay: bFGF-induced angiogenesis in chicken chorioallantoic membrane (CAM); assay type: in vivo; conditions: topical, 3 days
T2 construct: CD13 is expressed in CAM angiogenic vasculature; from tissue; host or cells: chorioallantoic membrane of 10-day chicken embryos
T2 sequence (O57579 1-972): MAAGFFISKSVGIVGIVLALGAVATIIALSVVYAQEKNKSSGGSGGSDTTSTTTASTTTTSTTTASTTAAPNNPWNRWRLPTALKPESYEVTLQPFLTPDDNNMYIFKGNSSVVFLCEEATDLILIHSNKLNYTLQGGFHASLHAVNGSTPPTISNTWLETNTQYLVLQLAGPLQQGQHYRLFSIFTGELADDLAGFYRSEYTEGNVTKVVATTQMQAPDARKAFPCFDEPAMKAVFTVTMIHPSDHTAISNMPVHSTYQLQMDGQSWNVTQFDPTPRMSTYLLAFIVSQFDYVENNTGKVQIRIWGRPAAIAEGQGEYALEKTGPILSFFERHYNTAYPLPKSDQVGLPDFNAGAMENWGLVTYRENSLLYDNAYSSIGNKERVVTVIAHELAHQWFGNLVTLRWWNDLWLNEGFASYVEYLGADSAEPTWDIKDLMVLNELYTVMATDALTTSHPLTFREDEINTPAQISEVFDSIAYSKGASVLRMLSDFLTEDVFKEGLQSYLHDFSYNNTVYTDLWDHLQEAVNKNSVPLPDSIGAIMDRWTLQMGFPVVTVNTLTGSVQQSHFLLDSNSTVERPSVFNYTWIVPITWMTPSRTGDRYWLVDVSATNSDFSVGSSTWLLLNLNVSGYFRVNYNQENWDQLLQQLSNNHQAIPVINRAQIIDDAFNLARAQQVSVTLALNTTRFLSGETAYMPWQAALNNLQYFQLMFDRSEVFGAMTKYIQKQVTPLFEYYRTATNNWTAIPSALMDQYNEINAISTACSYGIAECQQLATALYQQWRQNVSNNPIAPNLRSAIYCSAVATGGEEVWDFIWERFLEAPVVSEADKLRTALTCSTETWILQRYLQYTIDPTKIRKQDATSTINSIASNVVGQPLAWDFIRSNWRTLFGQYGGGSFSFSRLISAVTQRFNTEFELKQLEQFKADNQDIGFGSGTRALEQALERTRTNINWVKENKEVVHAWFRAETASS
Text: Various treatments were applied topically, and, after 3 days, the filters and surrounding CAMs were resected and fixed in formalin.
Each bar represents the mean number of vessels and standard errors from 8 CAMs on each group.

[13] = 5 μg/mouse/week doxorubicin-equivalent iv

## CLSGSLSC
[1]
  share of the clones sequenced: 52%

## WGTGLC
[1]
  share of the clones sequenced: 25%

## O=c1[nH]cc(F)c(=O)[nH]1 [CARAC]
[2]
  CD13/APN obtained by affinity chromatography on immobilized peptide: yielded no CD13/APN
[2]; Molt-4/CD13, MDA-MB-435/CD13 or HL-60 cell extracts
  elution of CD13/APN from the CNGRC column by soluble peptide: did not elute any activity

## c1cnc2c(c1)ccc1cccnc12 [o-phenanthroline]
[3]
  block of cell-surface CD13/aminopeptidase N enzymatic activity: potently blocked
[4]
  inhibition of aminopeptidase activity captured by CD13 antibody: inhibited the activity

## CDCRGDCFC [RGD-4C]
[5]
  binding to αv-integrins: binds to human αv-integrins
[6]
  inhibition of tumor homing of CNGRCVSGCAGRC (NGR) phage by co-injected soluble peptide: partially inhibited
  inhibition of tumor homing of RGD-4C phage by co-injected soluble peptide: readily inhibited
[6]; mouse, in vivo
  potency in inhibiting NGR phage tumor homing, less potent than the CNGRC peptide: 5-10 times

## CGSLVRC
[6]
  inhibition of CGSLVRC phage tumor homing by soluble peptide: inhibition of tumor homing

## GRGESP [reference compound]
[6]
  reduction of the amount of phage in the tumor by coinjection of free peptide: essentially had no effect

## ACDCRGDCFCG
[6]
  reduction of the amount of phage in the tumor by coinjection of free peptide: about tenfold

## COc1cccc2c1C(=O)c1c(O)c3c(c(O)c1C2=O)C[C@@](O)(C(=O)CO)C[C@@H]3O[C@H]1C[C@H](N)[C@H](O)[C@H](C)O1 [doxorubicin, reference compound]
[7]; relative to vehicle alone
  effect on tumor growth: essentially no effect on tumor growth
[8]
  cell killing when agents not removed: cells were killed
[9]
  gross examination of tumors (skin ulceration and tumor necrosis): no such signs were observed

## doxorubicin/RGD-4C: doxorubicin conjugated to peptide CDCRGDCFC (SEQ ID NO:1) (cysteine pairing not given here; also: doxorubicin conjugate)
[7]; [13]
  pulmonary metastasis: a lower incidence of pulmonary metastasis and fewer metastatic lesions
  spread to regional lymph nodes: less spread to regional lymph nodes
  survival: survived beyond the time when the doxorubicin control and conjugate control mice had died
  tumor size versus doxorubicin control: significantly smaller tumors
[7]; dose escalation, 30 μg/mouse every three weeks for three cycles
  time alive after control mice had died: more than 6 months
[7]; mouse, in vivo
  histopathological analysis of tumor vasculature: pronounced destruction of the vasculature
[10]
  survival after acute dose: survived for longer than one week
[8]; 0.1 to 10 μg/well doxorubicin-equivalent, agents removed after 30 min, survival at 24 hours
  cell death after 30 min exposure: cell death was present
[8]
  cell killing when agents not removed: cells were killed
[11]
  viability of tumor cells, less than cells from tumors of mice treated with free doxorubicin: about 3 fold
[9]
  gross examination of tumors (skin ulceration and tumor necrosis): marked skin ulceration and tumor necrosis

## GACVFSIAHECGA (not fully specified (bridges); also: cyclic, ring type not given here) [unrelated cyclic control peptide, reference compound]
[6]
  inhibition of tumor homing of CNGRCVSGCAGRC (NGR) phage by co-injected soluble peptide: had no effect
  inhibition of tumor homing of RGD-4C phage by co-injected soluble peptide: had no effect

## CCCCC[C@H](CC(=O)NO)C(=O)N[C@H](C(=O)N1CCC[C@H]1CO)C(C)C [actinonin]
[3]
  block of cell-surface CD13/aminopeptidase N enzymatic activity: potently blocked
[12]
  effect on bFGF-induced angiogenesis in CAM: suppress bFGF-induced angiogenesis

Reference: patent publication US6491894B1, “NGR receptor and methods of identifying tumor homing molecules that home to angiogenic vasculature using same” (The Burnham Institute, priority 1998, dated 2002)
